Reference: publication PMC10178848, “Modulating fast skeletal muscle contraction protects skeletal muscle in animal models of Duchenne muscular dystrophy” (The Journal of Clinical Investigation, 2023)
Read-outs that look alike come from different tables or passages of the source.

How the values were obtained:
[1] = molecular target: T1, JAK2(JH1domain-catalytic) (Homo sapiens, UniProt O60674); experiment: KINOMEscan scanEDGE; assay type: binding; conditions: 20 uM
T1 construct: JAK2(JH1domain-catalytic); purchased Eurofins DiscoverX (KINOMEscan; SAFETYscan E/IC50 ELECT)

[2] = molecular target: T2, PLK1 (Homo sapiens, UniProt P53350); experiment: KINOMEscan scanEDGE; assay type: binding; conditions: 20 uM
T2 construct: purchased Eurofins DiscoverX (KINOMEscan; SAFETYscan E/IC50 ELECT)

[3] = molecular target: mouse TA myofibrils; experiment: Myofibril ATPase, mouse TA; assay type: biochemical; conditions: mixed IIa, IIx, IIb
[4] = molecular target: T3, PAK2 (Homo sapiens, UniProt Q13177); experiment: KINOMEscan scanEDGE; assay type: binding; conditions: 20 uM
T3 construct: purchased Eurofins DiscoverX (KINOMEscan; SAFETYscan E/IC50 ELECT)

[5] = system: dystrophic golden retriever (GRMD) dogs; experiment: Habitual activity in GRMD dogs (FitBark); assay type: in vivo, dog; conditions: 2 mg/kg daily for 4 days, then every other day
Procedure: Studies were performed in two phases. In the first phase, GRMD (n = 4, female, 7 months old) were dosed PO daily with vehicle for 2 weeks, followed by a suspension of EDG-5506 (3 mg/kg daily for 2 days, then 1 mg/kg daily for 2 weeks) and then with vehicle for 2 weeks. Blood was drawn at regular intervals (2–3 draws during the vehicle baseline, 5–8 draws during the dosing period, and 2 draws during the vehicle washout). In a separate dosing period, the same 4 dogs (10 months old) were administered vehicle for 14 days with regular blood draws (6–9 for each dog across the 14-day period). CK activity (Pointe Scientific, Thermo Fisher Scientific) was measured from plasma. In the second phase, the same 4 dogs (15 months old) were fitted with a collar-bound activity monitor (Fitbark 2, Fitbark Inc.) as described previously ([42]), and baseline activity was recorded for 27 days before daily oral gavage with vehicle for 22 days. Three dogs were then dosed in a similar pattern to phase 1 with EDG-5506 (2 mg/kg for 4 days and then 2 mg/kg every other day for 7 days). The fourth dog was dosed with vehicle over the same period. Dogs were then returned to vehicle for a further 12 days. Average daily activity (“Fitbark points”) and time performing various activities (play, rest, active) were recorded.

[6] = molecular target: T4, p38-alpha (Homo sapiens, UniProt Q16539); experiment: KINOMEscan scanEDGE; assay type: binding; conditions: 20 uM
T4 construct: purchased Eurofins DiscoverX (KINOMEscan; SAFETYscan E/IC50 ELECT)

[7] = molecular target: Rabbit Cardiac myofibrils; experiment: Myofibril ATPase, rabbit cardiac; assay type: biochemical; conditions: 25% MHCα, 75% MHC β, at pCa 50
[8] = system: slow skeletal rat soleus fibers; experiment: Skinned fiber force, rat soleus; conditions: 100% type I, EDG-5506
Procedure: Measurement of isometric force in skinned fibers from rabbit psoas, rat soleus, and rat cardiac trabeculae were performed as described previously ([65]) with an 802D fiber system (Aurora Scientific). Muscle bundles were thawed from –80°C and placed in relaxing solution. Single fibers were transferred to the testing apparatus with steel pins connected to a force transducer and motor (model 403A and 322C, Aurora Scientific), and collodion glue was applied. Temperature was set to 15°C for skeletal fibers and 30°C for rat cardiac trabeculae. The wells of the 802D were filled with different ratios of relaxing and activating pCa solutions as detailed previously ([65]). All control solutions contained 1% final DMSO. Traces were compared between control and compound runs to evaluate isometric force and calcium sensitivity.

[9] = molecular target: T5, EGFR(L858R) (Homo sapiens, UniProt P00533, L858R); experiment: KINOMEscan scanEDGE; assay type: binding; conditions: 20 uM
T5 construct: purchased Eurofins DiscoverX (KINOMEscan; SAFETYscan E/IC50 ELECT)

[10] = molecular target: T6, CSF1R (Homo sapiens, UniProt P07333); experiment: KINOMEscan scanEDGE; assay type: binding; conditions: 20 uM
T6 construct: purchased Eurofins DiscoverX (KINOMEscan; SAFETYscan E/IC50 ELECT)

[11] = molecular target: T7, PDGFRB (Homo sapiens, UniProt P09619); experiment: KINOMEscan scanEDGE; assay type: binding; conditions: 20 uM
T7 construct: purchased Eurofins DiscoverX (KINOMEscan; SAFETYscan E/IC50 ELECT)

[12] = molecular target: T8, CHRM1 (Homo sapiens, UniProt P11229); experiment: SAFETYscan Calcium Flux; assay type: cell-based; parameters: dose or concentration left out as unconfirmed
T8 construct: purchased Eurofins DiscoverX (KINOMEscan; SAFETYscan E/IC50 ELECT)
Procedure: (§1) The specificity of EDG-5506 for fast skeletal myosin over other, unrelated proteins was confirmed using two off-target binding and activity screens. […] A second off-target panel (SAFETYscan E/IC50 ELECT, Eurofins DiscoverX) tested in vitro enzyme activity against 78 proteins, including GPCR, ion channel, kinases, nuclear hormone receptors, and transporters. In all assays, the IC50 of EDG-5506 was more than 10 μM (Supplemental Data File 1).

[13] = molecular target: T9, ADRA1A (Homo sapiens, UniProt P35348); experiment: SAFETYscan Calcium Flux; assay type: cell-based; parameters: dose or concentration left out as unconfirmed
T9 construct: purchased Eurofins DiscoverX (KINOMEscan; SAFETYscan E/IC50 ELECT)
Procedure: as §1

[14] = molecular target: T10, EDNRA (Homo sapiens, UniProt P25101); experiment: SAFETYscan Calcium Flux; assay type: cell-based; parameters: dose or concentration left out as unconfirmed
T10 construct: purchased Eurofins DiscoverX (KINOMEscan; SAFETYscan E/IC50 ELECT)
Procedure: as §1

[15] = molecular target: T11, CCKAR (Homo sapiens, UniProt P32238); experiment: SAFETYscan Calcium Flux; assay type: cell-based; parameters: dose or concentration left out as unconfirmed
T11 construct: purchased Eurofins DiscoverX (KINOMEscan; SAFETYscan E/IC50 ELECT)
Procedure: as §1

[16] = molecular target: T12, HTR2B (Homo sapiens, UniProt P41595); experiment: SAFETYscan Calcium Flux; assay type: cell-based; parameters: dose or concentration left out as unconfirmed
T12 construct: purchased Eurofins DiscoverX (KINOMEscan; SAFETYscan E/IC50 ELECT)
Procedure: as §1

[17] = molecular target: T13, ADORA2A (Homo sapiens, UniProt P29274); experiment: SAFETYscan Calcium Flux; assay type: cell-based; parameters: dose or concentration left out as unconfirmed
T13 construct: purchased Eurofins DiscoverX (KINOMEscan; SAFETYscan E/IC50 ELECT)
Procedure: as §1

[18] = molecular target: T14, AVPR1A (Homo sapiens, UniProt P37288); experiment: SAFETYscan Calcium Flux; assay type: cell-based; parameters: dose or concentration left out as unconfirmed
T14 construct: purchased Eurofins DiscoverX (KINOMEscan; SAFETYscan E/IC50 ELECT)
Procedure: as §1

[19] = molecular target: T15, HRH1 (Homo sapiens, UniProt P35367); experiment: SAFETYscan Calcium Flux; assay type: cell-based; parameters: dose or concentration left out as unconfirmed
T15 construct: purchased Eurofins DiscoverX (KINOMEscan; SAFETYscan E/IC50 ELECT)
Procedure: as §1

[20] = molecular target: T16, CHRM3 (Homo sapiens, UniProt P20309); experiment: SAFETYscan Calcium Flux; assay type: cell-based; parameters: dose or concentration left out as unconfirmed
T16 construct: purchased Eurofins DiscoverX (KINOMEscan; SAFETYscan E/IC50 ELECT)
Procedure: as §1

[21] = molecular target: T17, HTR2A (Homo sapiens, UniProt P28223); experiment: SAFETYscan Calcium Flux; assay type: cell-based; parameters: dose or concentration left out as unconfirmed
T17 construct: purchased Eurofins DiscoverX (KINOMEscan; SAFETYscan E/IC50 ELECT)
Procedure: as §1

[22] = molecular target: T18, ERBB2 (Homo sapiens, UniProt P04626); experiment: KINOMEscan scanEDGE; assay type: binding; conditions: 20 uM
T18 construct: purchased Eurofins DiscoverX (KINOMEscan; SAFETYscan E/IC50 ELECT)

[23] = molecular target: T19, ULK2 (Homo sapiens, UniProt Q8IYT8); experiment: KINOMEscan scanEDGE; assay type: binding; conditions: 20 uM
T19 construct: purchased Eurofins DiscoverX (KINOMEscan; SAFETYscan E/IC50 ELECT)

[24] = molecular target: T20, TSSK1B (Homo sapiens, UniProt Q9BXA7); experiment: KINOMEscan scanEDGE; assay type: binding; conditions: 20 uM
T20 construct: purchased Eurofins DiscoverX (KINOMEscan; SAFETYscan E/IC50 ELECT)

[25] = read-out: Max Response (%) (Agonist)
[26] = read-out: Max Response (%) (Antagonist)

T11 sequence (P32238 whole entry): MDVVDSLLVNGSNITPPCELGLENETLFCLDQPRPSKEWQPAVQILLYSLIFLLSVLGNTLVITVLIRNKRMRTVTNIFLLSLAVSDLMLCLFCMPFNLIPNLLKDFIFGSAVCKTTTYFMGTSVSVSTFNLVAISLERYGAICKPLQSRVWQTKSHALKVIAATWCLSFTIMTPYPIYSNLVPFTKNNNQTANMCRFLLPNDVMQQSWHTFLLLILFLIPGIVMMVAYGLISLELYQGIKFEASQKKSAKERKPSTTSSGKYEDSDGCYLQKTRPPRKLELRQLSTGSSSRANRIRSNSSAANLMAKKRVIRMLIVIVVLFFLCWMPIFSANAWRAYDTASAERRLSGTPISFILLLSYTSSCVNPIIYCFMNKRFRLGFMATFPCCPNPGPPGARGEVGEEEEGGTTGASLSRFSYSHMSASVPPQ
T12 sequence (P41595 whole entry): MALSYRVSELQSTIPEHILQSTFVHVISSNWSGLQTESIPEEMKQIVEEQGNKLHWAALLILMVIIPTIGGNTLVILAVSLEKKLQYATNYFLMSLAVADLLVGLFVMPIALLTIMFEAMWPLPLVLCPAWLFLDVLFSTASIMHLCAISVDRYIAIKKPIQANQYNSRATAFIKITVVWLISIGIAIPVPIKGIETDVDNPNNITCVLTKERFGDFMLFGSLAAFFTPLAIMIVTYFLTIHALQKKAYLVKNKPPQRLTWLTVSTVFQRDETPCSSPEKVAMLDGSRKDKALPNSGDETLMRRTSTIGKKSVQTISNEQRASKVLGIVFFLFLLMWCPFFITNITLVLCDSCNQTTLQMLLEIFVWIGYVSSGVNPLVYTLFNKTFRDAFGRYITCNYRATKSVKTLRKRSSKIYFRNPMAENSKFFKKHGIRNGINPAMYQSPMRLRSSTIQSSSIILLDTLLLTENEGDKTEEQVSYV
T17 sequence (P28223 whole entry): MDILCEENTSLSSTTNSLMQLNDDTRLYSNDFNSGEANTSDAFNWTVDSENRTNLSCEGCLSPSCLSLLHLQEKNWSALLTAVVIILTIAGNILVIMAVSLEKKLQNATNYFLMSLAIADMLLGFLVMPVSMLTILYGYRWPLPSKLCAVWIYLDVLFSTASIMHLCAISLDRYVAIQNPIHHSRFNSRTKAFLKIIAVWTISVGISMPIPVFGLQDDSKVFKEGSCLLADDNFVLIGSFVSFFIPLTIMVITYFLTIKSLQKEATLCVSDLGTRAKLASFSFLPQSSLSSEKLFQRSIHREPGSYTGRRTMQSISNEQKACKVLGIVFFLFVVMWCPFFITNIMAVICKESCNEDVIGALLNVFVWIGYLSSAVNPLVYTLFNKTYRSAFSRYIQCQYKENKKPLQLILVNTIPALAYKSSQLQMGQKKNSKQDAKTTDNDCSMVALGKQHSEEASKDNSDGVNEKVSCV
T13 sequence (P29274 whole entry): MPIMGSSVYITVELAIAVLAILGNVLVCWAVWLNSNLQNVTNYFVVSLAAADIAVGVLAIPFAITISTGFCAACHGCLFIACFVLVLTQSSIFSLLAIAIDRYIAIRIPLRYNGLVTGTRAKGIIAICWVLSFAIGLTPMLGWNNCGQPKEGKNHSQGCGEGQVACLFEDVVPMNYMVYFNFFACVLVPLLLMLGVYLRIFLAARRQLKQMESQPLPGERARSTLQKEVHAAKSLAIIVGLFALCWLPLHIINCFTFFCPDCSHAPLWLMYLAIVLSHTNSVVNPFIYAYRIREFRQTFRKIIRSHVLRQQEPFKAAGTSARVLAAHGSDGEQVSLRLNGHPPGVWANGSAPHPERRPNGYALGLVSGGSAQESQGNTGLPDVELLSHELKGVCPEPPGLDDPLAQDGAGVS
T9 sequence (P35348 whole entry): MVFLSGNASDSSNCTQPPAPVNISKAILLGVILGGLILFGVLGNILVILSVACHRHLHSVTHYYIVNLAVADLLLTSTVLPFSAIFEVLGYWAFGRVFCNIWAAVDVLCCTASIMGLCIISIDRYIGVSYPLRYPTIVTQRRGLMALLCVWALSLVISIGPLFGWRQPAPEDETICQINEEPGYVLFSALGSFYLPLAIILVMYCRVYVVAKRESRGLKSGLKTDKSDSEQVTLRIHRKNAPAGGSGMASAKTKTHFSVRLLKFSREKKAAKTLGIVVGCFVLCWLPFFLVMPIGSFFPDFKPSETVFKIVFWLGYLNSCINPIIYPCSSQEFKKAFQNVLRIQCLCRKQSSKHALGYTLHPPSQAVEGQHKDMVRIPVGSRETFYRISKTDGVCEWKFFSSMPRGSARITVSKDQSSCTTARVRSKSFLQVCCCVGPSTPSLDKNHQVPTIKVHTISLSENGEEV
T15 sequence (P35367 whole entry): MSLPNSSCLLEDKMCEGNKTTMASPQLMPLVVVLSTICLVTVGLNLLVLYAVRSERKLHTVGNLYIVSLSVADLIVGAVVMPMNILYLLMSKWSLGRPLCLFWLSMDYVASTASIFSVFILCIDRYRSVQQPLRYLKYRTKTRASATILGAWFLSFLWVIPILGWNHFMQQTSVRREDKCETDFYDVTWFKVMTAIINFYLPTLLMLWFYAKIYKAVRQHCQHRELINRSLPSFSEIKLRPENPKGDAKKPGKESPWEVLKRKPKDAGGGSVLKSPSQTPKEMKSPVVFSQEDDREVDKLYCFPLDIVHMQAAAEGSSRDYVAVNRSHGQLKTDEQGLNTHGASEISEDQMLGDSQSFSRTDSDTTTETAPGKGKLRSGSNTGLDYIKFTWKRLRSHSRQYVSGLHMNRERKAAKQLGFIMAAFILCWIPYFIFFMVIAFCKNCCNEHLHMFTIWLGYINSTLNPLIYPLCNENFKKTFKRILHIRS
T10 sequence (P25101 21-427): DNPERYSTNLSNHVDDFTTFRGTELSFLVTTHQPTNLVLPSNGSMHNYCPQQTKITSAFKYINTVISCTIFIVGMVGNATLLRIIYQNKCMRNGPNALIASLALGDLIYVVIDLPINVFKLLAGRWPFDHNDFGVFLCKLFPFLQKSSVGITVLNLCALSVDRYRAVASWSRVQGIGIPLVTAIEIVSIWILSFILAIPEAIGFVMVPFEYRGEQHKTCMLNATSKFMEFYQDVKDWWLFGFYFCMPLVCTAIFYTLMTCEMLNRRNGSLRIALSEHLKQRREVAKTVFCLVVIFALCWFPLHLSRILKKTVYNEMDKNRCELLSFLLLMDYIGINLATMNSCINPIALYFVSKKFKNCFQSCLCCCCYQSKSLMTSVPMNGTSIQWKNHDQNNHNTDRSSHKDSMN
T8 sequence (P11229 whole entry): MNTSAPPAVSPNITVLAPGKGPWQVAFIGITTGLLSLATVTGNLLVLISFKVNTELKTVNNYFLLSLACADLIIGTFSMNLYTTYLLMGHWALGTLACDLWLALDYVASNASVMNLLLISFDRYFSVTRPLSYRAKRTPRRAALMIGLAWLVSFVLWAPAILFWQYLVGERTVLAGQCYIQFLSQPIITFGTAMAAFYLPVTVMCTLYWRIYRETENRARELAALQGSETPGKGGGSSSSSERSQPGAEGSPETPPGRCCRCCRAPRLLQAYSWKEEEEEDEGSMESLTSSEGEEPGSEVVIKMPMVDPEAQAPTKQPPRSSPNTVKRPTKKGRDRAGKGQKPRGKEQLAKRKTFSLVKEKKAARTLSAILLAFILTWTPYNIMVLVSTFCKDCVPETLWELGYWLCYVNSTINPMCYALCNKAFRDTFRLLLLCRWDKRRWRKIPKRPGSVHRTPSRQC
T16 sequence (P20309 whole entry): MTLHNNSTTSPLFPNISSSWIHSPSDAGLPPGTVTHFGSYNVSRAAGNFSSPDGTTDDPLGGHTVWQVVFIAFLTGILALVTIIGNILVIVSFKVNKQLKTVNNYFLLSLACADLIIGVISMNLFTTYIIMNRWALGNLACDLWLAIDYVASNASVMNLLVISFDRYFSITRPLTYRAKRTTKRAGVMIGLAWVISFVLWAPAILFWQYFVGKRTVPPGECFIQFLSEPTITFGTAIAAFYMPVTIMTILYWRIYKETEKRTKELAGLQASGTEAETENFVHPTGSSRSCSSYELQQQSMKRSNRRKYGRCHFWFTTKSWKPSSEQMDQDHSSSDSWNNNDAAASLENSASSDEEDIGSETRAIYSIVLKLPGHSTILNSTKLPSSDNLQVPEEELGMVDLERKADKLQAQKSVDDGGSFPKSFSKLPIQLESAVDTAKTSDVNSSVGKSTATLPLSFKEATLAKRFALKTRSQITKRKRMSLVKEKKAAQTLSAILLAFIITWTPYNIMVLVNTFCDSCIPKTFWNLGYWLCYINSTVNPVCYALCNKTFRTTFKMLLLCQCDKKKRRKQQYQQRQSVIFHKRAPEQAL
T14 sequence (P37288 whole entry): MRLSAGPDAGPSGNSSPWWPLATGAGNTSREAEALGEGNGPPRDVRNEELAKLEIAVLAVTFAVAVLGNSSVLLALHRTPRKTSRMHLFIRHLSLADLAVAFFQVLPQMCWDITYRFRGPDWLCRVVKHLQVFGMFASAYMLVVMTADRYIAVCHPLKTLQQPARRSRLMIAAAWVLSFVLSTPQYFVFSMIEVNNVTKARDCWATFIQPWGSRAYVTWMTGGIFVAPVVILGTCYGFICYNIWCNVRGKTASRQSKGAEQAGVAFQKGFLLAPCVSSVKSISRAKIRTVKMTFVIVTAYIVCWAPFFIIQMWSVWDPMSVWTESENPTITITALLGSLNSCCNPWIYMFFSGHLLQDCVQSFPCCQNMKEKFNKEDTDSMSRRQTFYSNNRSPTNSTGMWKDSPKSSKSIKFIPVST
T1 sequence (O60674 840-1132 limits assumed): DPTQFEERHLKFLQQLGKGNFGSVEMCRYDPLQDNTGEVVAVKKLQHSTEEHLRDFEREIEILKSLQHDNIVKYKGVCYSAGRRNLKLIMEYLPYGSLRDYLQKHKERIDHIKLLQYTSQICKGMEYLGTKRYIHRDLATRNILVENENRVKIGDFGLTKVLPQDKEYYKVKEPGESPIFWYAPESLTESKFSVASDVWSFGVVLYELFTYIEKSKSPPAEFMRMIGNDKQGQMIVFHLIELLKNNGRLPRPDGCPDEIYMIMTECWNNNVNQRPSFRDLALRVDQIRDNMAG

O=c1ccc(-c2cnc(OCC(F)(F)F)nc2)nn1Cc1cncc(F)c1 [EDG-5506]
binding, % of control [1]: 83 % of control | binding, % of control [2]: 100 % of control | IC50 [3]: 400 nM | binding, % of control [4]: 98 % of control | improvement of average daily activity [5]: more than 30% | binding, % of control [6]: 100 % of control | IC50 [7]: > 100000 nM | effect on force, slow skeletal fibers [8]: no effect | binding, % of control [9]: 95 % of control | binding, % of control [10]: 100 % of control | binding, % of control [11]: 100 % of control | Emax [12, 25]: 0.16% | Emax [12, 26]: 0% | Emax [13, 25]: 2.19% | Emax [13, 26]: 18.5% | Emax [14, 25]: 0% | Emax [14, 26]: 0% | Emax [15, 25]: 1.03% | Emax [15, 26]: 5.54% | Emax [16, 25]: 5.88% | Emax [16, 26]: 2.49% | Emax [17, 25]: 0% | Emax [17, 26]: 0% | Emax [18, 25]: 0% | Emax [18, 26]: 0% | Emax [19, 25]: 0% | Emax [19, 26]: 25.2% | Emax [20, 25]: 2.48% | Emax [20, 26]: 2.14% | Emax [21, 25]: 3.31% | Emax [21, 26]: 0.4% | binding, % of control [22]: 76 % of control | binding, % of control [23]: 82 % of control | binding, % of control [24]: 97 % of control
